This note sets out measurements from ChEMBL document CHEMBL5678818, “Discovery of potent SOS1 inhibitors that block RAS activation via disruption of the RAS-SOS1 interaction” (Proc Natl Acad Sci U S A, 2019).

In experiment [1] the target is SRSF protein kinase 2 (Homo sapiens) (UniProt P78362). Briefly: Inhibition of SRPK2 (unknown origin) assessed as residual activity at 100 nM by KINOMEscan analysis relative to control.
For experiment [2], the target named is Insulin-like growth factor 1 receptor (Homo sapiens) (UniProt P08069). The experiment in a line: Inhibition of IGF1R (unknown origin) assessed as residual activity at 100 nM by KINOMEscan analysis relative to control.
Experiment [3] has as its system Receptor-type tyrosine-protein kinase FLT3 (Homo sapiens), P36888 [R834Q]. The experiment in a line: Inhibition of FLT3 R834Q mutant (unknown origin) assessed as residual activity at 100 nM by KINOMEscan analysis relative to control.
For experiment [4], the target named is Bone morphogenetic protein receptor type-1A (Homo sapiens) (UniProt P36894). The experiment in a line: Inhibition of BMPR1A (unknown origin) assessed as residual activity at 100 nM by KINOMEscan analysis relative to control.
The target in experiment [5] is T1, Inhibitor of nuclear factor kappa-B kinase subunit beta (Homo sapiens) (UniProt O14920).
T1 sequence (whole entry): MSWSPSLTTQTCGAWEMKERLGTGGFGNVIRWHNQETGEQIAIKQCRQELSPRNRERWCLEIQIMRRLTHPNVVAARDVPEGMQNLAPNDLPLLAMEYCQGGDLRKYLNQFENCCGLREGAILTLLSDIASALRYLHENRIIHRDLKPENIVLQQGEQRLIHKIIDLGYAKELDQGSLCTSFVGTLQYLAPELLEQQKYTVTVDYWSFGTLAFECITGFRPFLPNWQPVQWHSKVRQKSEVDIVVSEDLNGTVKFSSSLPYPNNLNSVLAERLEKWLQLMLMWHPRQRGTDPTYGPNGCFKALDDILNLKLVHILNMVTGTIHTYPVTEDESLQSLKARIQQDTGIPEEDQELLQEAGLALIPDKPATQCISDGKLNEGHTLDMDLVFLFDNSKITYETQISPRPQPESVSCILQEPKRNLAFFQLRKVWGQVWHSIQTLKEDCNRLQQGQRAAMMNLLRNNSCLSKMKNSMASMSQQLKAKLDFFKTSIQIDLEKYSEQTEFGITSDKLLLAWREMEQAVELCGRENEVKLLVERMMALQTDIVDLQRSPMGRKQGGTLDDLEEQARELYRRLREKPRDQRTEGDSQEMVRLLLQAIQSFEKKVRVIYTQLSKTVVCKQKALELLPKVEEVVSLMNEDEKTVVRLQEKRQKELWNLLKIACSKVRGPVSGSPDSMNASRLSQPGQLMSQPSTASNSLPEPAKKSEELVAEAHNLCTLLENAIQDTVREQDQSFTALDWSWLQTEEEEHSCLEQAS
Briefly: Inhibition of IKK-beta (unknown origin) assessed as residual activity at 100 nM by KINOMEscan analysis relative to control.

Experiment [6] concerns the target Dual specificity protein kinase CLK2 (Homo sapiens) (UniProt P49760). Briefly: Inhibition of CLK2 (unknown origin) assessed as residual activity at 100 nM by KINOMEscan analysis relative to control.
Experiment [7] concerns the target T2, Serine/threonine-protein kinase ULK3 (Homo sapiens) (UniProt Q6PHR2).
T2 sequence (whole entry): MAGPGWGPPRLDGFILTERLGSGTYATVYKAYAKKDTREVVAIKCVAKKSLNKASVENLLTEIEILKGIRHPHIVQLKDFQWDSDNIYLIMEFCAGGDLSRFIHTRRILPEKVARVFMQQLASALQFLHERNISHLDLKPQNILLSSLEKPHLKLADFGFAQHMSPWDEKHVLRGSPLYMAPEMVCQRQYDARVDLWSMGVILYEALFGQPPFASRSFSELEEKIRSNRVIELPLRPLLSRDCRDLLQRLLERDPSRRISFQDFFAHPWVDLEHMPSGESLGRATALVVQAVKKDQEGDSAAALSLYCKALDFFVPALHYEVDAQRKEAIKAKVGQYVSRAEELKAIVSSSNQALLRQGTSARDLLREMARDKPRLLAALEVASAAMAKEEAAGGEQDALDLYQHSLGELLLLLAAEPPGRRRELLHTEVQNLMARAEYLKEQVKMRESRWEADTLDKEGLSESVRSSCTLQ
The experiment in a line: Inhibition of ULK3 (unknown origin) assessed as residual activity at 100 nM by KINOMEscan analysis relative to control.

Experiment [8] deals with Phosphatidylinositol 4-phosphate 5-kinase type-1 alpha (Homo sapiens) (UniProt Q99755). Briefly: Inhibition of PIP5K1A (unknown origin) assessed as residual activity at 100 nM by KINOMEscan analysis relative to control.
For experiment [9], the target named is T3, Activin receptor type-1B (Homo sapiens) (UniProt P36896).
T3 sequence (whole entry): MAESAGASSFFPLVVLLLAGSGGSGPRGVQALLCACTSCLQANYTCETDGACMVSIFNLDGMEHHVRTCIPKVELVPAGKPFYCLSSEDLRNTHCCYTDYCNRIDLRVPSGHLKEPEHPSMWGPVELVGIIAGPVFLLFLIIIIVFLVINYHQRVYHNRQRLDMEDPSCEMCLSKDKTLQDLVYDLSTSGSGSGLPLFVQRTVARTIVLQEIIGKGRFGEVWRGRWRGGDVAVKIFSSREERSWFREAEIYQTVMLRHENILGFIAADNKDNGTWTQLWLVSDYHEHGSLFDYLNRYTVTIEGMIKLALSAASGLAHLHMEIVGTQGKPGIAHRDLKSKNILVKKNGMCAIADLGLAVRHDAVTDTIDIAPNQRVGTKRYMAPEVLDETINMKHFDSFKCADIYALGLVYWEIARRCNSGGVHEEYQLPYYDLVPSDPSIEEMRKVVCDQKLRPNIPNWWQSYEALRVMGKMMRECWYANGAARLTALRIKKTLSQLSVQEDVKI
The experiment in a line: Inhibition of ACVR1B (unknown origin) assessed as residual activity at 100 nM by KINOMEscan analysis relative to control.

Experiment [10] addresses Dual specificity tyrosine-phosphorylation-regulated kinase 1A (Homo sapiens) (UniProt Q13627). The experiment in a line: Inhibition of DYRK1A (unknown origin) assessed as residual activity at 100 nM by KINOMEscan analysis relative to control.
In experiment [11] the target is Calcium/calmodulin-dependent protein kinase type 1D (Homo sapiens) (UniProt Q8IU85). The experiment in a line: Inhibition of CAMK1D (unknown origin) assessed as residual activity at 100 nM by KINOMEscan analysis relative to control.
Experiment [12] concerns the target Cyclin-dependent kinase 5 (Homo sapiens) (UniProt Q00535). The experiment in a line: Inhibition of CDK5 (unknown origin) assessed as residual activity at 100 nM by KINOMEscan analysis relative to control.
Experiment [13] has as its target Serine/threonine-protein kinase 32C (Homo sapiens) (UniProt Q86UX6). Briefly: Inhibition of YANK3 (unknown origin) assessed as residual activity at 100 nM by KINOMEscan analysis relative to control.
The target of experiment [14] is Tyrosine-protein kinase Tec (Homo sapiens) (UniProt P42680). Briefly: Inhibition of TEC (unknown origin) assessed as residual activity at 100 nM by KINOMEscan analysis relative to control.
Chain of Tyrosine-protein kinase Tec (Homo sapiens) (P42680 whole entry, looked up): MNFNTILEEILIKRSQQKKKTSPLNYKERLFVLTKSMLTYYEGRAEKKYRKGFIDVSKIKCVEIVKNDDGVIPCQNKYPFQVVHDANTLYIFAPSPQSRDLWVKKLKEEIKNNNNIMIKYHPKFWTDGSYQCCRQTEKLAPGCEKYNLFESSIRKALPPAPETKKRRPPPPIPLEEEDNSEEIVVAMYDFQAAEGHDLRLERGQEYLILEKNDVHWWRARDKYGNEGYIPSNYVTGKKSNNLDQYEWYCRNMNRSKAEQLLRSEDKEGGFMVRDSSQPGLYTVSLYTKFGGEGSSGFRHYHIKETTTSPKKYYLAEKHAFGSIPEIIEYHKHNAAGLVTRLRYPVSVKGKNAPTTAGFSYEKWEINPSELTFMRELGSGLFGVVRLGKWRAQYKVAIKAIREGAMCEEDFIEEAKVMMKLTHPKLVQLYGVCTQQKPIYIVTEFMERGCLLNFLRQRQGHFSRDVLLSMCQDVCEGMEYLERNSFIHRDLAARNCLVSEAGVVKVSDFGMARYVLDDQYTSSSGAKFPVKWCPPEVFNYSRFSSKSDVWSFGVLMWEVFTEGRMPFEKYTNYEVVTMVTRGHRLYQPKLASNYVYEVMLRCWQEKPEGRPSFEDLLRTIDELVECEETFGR

Chain of Phosphatidylinositol 4-phosphate 5-kinase type-1 alpha (Homo sapiens) (Q99755 whole entry): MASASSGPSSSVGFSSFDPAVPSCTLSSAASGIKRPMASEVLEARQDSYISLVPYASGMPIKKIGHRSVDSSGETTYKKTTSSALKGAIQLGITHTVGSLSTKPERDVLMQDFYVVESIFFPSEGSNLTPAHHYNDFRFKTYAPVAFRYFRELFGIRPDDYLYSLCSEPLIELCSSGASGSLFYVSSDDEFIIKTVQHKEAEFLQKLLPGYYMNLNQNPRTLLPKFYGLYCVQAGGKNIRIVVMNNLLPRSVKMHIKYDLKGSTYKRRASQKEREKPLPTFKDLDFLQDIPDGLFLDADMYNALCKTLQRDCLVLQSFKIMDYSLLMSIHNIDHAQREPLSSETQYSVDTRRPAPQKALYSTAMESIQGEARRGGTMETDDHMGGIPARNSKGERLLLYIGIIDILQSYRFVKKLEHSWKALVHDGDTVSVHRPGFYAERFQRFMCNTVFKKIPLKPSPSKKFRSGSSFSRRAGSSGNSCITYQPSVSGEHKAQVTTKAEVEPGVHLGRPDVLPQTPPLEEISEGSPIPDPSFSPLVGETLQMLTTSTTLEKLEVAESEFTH
Chain of Insulin-like growth factor 1 receptor (Homo sapiens) (P08069 31-736 limits assumed): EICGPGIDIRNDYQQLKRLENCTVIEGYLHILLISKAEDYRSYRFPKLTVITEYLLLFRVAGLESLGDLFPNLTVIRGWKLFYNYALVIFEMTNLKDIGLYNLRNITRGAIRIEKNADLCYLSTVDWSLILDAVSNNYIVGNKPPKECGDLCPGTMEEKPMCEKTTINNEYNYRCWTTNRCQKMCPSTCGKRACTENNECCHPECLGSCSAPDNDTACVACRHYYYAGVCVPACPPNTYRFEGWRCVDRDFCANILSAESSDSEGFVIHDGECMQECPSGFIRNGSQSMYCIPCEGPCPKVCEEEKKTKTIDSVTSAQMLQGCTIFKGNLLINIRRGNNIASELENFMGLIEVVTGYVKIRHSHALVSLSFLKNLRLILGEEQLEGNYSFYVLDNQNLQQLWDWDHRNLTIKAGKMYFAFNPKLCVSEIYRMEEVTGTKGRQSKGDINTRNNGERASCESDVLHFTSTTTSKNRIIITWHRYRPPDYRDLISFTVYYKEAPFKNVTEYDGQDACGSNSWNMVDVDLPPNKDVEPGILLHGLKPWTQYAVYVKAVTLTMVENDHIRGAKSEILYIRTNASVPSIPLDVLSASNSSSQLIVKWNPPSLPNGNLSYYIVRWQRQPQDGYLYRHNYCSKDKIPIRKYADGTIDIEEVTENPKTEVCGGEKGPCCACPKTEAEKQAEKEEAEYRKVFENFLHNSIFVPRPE
Chain of Insulin-like growth factor 1 receptor (Homo sapiens) (P08069 741-1367 limits assumed): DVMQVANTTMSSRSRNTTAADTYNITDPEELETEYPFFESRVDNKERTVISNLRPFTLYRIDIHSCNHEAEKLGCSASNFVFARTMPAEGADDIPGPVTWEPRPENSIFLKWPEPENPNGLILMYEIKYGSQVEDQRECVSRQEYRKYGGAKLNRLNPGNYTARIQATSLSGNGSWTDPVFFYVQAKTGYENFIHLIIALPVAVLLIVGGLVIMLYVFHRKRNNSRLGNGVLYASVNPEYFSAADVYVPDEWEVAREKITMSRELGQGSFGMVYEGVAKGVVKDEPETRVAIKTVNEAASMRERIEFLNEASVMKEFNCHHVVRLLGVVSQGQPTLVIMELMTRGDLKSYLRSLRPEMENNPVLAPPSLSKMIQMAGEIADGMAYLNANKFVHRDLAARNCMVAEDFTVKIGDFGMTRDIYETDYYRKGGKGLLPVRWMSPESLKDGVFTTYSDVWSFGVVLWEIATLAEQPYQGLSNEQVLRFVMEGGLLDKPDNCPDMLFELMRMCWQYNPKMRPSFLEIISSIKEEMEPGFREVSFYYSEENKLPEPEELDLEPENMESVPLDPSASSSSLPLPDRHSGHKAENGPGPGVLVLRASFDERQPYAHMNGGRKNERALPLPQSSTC
Chain of Dual specificity protein kinase CLK2 (Homo sapiens) (P49760 whole entry, looked up): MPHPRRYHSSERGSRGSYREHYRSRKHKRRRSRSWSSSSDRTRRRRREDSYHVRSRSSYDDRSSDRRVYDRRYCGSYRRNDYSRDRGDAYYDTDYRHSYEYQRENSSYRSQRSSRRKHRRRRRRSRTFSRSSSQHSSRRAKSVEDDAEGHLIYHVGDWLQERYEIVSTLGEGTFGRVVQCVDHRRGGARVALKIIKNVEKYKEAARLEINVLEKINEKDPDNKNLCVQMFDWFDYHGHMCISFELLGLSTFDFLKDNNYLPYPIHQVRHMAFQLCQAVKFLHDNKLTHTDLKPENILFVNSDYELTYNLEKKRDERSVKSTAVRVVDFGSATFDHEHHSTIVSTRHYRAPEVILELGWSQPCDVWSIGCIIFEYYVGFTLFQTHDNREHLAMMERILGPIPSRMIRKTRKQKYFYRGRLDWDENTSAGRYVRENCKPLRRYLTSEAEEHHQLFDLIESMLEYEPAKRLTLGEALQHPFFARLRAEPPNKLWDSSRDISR
Chain of Cyclin-dependent kinase 5 (Homo sapiens) (Q00535 whole entry, looked up): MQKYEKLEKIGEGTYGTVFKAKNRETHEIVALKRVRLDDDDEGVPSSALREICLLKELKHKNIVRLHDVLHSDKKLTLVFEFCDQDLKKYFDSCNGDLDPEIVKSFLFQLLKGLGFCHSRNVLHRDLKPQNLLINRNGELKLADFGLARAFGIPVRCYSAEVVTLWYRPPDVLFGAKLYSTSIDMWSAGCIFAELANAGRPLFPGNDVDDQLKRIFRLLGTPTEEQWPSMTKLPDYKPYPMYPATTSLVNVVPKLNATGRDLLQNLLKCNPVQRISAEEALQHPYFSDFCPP
Chain of Bone morphogenetic protein receptor type-1A (Homo sapiens) (P36894 whole entry): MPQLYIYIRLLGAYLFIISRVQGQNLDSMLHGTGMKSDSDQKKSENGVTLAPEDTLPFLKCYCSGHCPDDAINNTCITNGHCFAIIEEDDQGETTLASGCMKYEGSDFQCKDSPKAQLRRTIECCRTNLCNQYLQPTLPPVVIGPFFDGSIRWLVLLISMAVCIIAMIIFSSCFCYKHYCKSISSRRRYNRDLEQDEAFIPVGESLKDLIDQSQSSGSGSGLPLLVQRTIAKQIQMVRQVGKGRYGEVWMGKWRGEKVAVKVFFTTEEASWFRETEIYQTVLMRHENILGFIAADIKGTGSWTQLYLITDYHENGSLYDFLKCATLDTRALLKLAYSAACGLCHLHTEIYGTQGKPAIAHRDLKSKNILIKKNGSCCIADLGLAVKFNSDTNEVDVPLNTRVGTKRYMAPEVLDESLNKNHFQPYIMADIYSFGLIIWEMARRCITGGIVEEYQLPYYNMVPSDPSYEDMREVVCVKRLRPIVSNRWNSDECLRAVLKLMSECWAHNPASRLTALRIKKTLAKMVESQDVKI
Chain of Serine/threonine-protein kinase 32C (Homo sapiens) (Q86UX6 whole entry): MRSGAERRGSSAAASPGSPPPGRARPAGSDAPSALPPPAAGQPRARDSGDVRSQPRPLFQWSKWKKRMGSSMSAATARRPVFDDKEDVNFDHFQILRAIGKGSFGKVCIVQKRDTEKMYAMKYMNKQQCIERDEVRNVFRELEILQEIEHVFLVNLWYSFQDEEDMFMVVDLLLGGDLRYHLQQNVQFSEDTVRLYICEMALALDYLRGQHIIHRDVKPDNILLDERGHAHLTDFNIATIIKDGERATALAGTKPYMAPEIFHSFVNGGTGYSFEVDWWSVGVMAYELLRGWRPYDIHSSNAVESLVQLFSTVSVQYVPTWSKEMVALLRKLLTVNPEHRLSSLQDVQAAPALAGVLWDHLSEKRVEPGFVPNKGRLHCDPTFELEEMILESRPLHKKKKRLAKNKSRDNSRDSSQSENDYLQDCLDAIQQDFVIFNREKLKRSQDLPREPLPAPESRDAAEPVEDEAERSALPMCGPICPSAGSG
Chain of SRSF protein kinase 2 (Homo sapiens) (P78362 whole entry, looked up): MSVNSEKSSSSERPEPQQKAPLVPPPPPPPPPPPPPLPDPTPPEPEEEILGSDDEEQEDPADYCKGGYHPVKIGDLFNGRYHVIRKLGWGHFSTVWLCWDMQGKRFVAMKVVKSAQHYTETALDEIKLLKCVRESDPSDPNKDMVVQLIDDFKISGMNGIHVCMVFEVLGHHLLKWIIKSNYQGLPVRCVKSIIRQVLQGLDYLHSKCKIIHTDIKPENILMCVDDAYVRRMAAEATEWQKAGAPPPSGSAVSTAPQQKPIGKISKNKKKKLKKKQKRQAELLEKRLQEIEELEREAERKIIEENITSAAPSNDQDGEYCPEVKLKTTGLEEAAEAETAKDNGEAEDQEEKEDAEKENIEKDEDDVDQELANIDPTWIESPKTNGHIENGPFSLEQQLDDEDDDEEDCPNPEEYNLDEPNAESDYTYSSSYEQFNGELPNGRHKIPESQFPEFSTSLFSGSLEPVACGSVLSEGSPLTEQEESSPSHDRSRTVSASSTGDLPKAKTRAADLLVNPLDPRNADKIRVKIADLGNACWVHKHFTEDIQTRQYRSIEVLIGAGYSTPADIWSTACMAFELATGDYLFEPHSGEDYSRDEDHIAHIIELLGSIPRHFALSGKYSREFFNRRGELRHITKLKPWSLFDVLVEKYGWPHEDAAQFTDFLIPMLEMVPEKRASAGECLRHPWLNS

On to `COc1cc2ncnc(N[C@H](C)c3cccc4ccccc34)c2cc1OC`, for which the Activity is 92% in [1]; 82% in [2]; 93% in experiment [3]; 71% in experiment [4]; 84% in experiment [5]; 100% in experiment [6]. Further, the Activity came to 89% in experiment [7]; 90% in [8]; 89% in [9]; 90% in experiment [10]; 88% in experiment [11]; 83% in experiment [12]. Further, the Activity worked out at 100% in experiment [13] and 87% in [14].
